From ChEMBL document CHEMBL4411303, “Synthesis of tetrazole derivatives bearing pyrrolidine scaffold and evaluation of their antifungal activity against Candida albicans” (Eur J Med Chem, 2019)
In brackets after ≈: the same amount, converted by molar mass. Activity calls are given as the source filed them. The calls are words filed in the database; no cut-off is given here.

How the values were obtained:
Candida albicans [1] = assay: Antifungal activity against Candida albicans ATCC 90028 assessed as planktonic growth inhibition at 0.08 uM after 48 hrs by M27-A3 protocol based method relative to control; type: functional; conditions: ATCC 90028, 48 h, read-out: GI
Candida albicans [2] = assay: Antifungal activity against Candida albicans ATCC 90028 assessed as planktonic growth inhibition at 0.16 uM after 48 hrs by M27-A3 protocol based method relative to control; type: functional; conditions: ATCC 90028, 48 h, read-out: GI
Candida albicans [3] = assay: Antifungal activity against Candida albicans ATCC 90028 assessed as planktonic growth inhibition at 0.31 uM after 48 hrs by M27-A3 protocol based method relative to control; type: functional; conditions: ATCC 90028, 48 h, read-out: GI
Candida albicans [4] = assay: Antifungal activity against Candida albicans ATCC 90028 assessed as planktonic growth inhibition at 0.62 uM after 48 hrs by M27-A3 protocol based method relative to control; type: functional; conditions: ATCC 90028, 48 h, read-out: GI
Candida albicans [5] = assay: Antifungal activity against Candida albicans ATCC 90028 assessed as planktonic growth inhibition at 1.24 uM after 48 hrs by M27-A3 protocol based method relative to control; type: functional; conditions: ATCC 90028, 48 h, read-out: GI
Candida albicans [6] = assay: Antifungal activity against Candida albicans ATCC 90028 assessed as planktonic growth inhibition at 2.49 uM after 48 hrs by M27-A3 protocol based method relative to control; type: functional; conditions: ATCC 90028, 48 h, read-out: GI
Candida albicans [7] = assay: Antifungal activity against Candida albicans ATCC 90028 assessed as planktonic growth inhibition at 4.97 uM after 48 hrs by M27-A3 protocol based method relative to control; type: functional; conditions: ATCC 90028, 48 h, read-out: GI
Candida albicans [8] = assay: Antifungal activity against Candida albicans ATCC 90028 assessed as planktonic growth inhibition at 9.94 uM after 48 hrs by M27-A3 protocol based method relative to control; type: functional; conditions: ATCC 90028, 48 h, read-out: GI
Candida albicans [9] = assay: Antifungal activity against Candida albicans ATCC 90028 assessed as planktonic growth inhibition at 19.88 uM after 48 hrs by M27-A3 protocol based method relative to control; type: functional; conditions: ATCC 90028, 48 h, read-out: GI
Candida albicans [10] = assay: Antifungal activity against Candida albicans ATCC 90028 assessed as planktonic growth inhibition at 39.77 uM after 48 hrs by M27-A3 protocol based method relative to control; type: functional; conditions: ATCC 90028, 48 h, read-out: GI
Candida albicans [11] = assay: Fungicidal activity against Candida albicans ATCC 90028 assessed as log reduction in fungal load incubated for 48 hrs followed by replating on sabouraud dextrose agar plate and measured after 48 hrs; type: functional
Vero [12] = assay: Cytotoxicity against African green monkey Vero cells assessed as reduction in cell viability at 318.16 uM after 18 hrs by XTT assay relative to control; type: cell-based; conditions: chlorocebus sabaeus
[13] = Selectivity index, ratio of CC50 for African green monkey Vero cells to IC50 for Candida albicans ATCC 90028; type: toxicity; conditions: read-out: Ratio CC50/IC50
Candida albicans [14] = assay: Antibiofilm activity against Candida albicans ATCC 90028 assessed as inhibition of biofilm formation […] after 24 hrs by XTT assay relative to control; type: functional, organism-based; conditions: ATCC 90028, 24 h
Candida albicans [15] = assay: Induction of Candida albicans ATCC 90028 internalization in mouse RAW264.7 cells assessed as reduction in fungus-induced cell damage by measuring live and early apoptotic cells at 39.77 uM after 2 hrs acridine orange/ethidium bromide staining based confocal scanning microscopic analysis; type: functional, organism-based
Candida albicans [16] = assay: Antifungal activity against Candida albicans ATCC 90028 assessed as planktonic growth inhibition at 0.09 uM after 48 hrs by M27-A3 protocol based method relative to control; type: functional; conditions: ATCC 90028, 48 h, read-out: GI
Candida albicans [17] = assay: Antifungal activity against Candida albicans ATCC 90028 assessed as planktonic growth inhibition at 0.2 uM after 48 hrs by M27-A3 protocol based method relative to control; type: functional; conditions: ATCC 90028, 48 h, read-out: GI
Candida albicans [18] = assay: Antifungal activity against Candida albicans ATCC 90028 assessed as planktonic growth inhibition at 0.4 uM after 48 hrs by M27-A3 protocol based method relative to control; type: functional; conditions: ATCC 90028, 48 h, read-out: GI
Candida albicans [19] = assay: Antifungal activity against Candida albicans ATCC 90028 assessed as planktonic growth inhibition at 0.7 uM after 48 hrs by M27-A3 protocol based method relative to control; type: functional; conditions: ATCC 90028, 48 h, read-out: GI
Candida albicans [20] = assay: Antifungal activity against Candida albicans ATCC 90028 assessed as planktonic growth inhibition at 1.5 uM after 48 hrs by M27-A3 protocol based method relative to control; type: functional; conditions: ATCC 90028, 48 h, read-out: GI
Candida albicans [21] = assay: Antifungal activity against Candida albicans ATCC 90028 assessed as planktonic growth inhibition at 3 uM after 48 hrs by M27-A3 protocol based method relative to control; type: functional; conditions: ATCC 90028, 48 h, read-out: GI
Candida albicans [22] = assay: Antifungal activity against Candida albicans ATCC 90028 assessed as planktonic growth inhibition at 6 uM after 48 hrs by M27-A3 protocol based method relative to control; type: functional; conditions: ATCC 90028, 48 h, read-out: GI
Candida albicans [23] = assay: Antifungal activity against Candida albicans ATCC 90028 assessed as planktonic growth inhibition at 12 uM after 48 hrs by M27-A3 protocol based method relative to control; type: functional; conditions: ATCC 90028, 48 h, read-out: GI
Candida albicans [24] = assay: Antifungal activity against Candida albicans ATCC 90028 assessed as planktonic growth inhibition at 23.9 uM after 48 hrs by M27-A3 protocol based method relative to control; type: functional; conditions: ATCC 90028, 48 h, read-out: GI
Candida albicans [25] = assay: Antifungal activity against Candida albicans ATCC 90028 assessed as planktonic growth inhibition at 47.9 uM after 48 hrs by M27-A3 protocol based method relative to control; type: functional; conditions: ATCC 90028, 48 h, read-out: GI
Vero [26] = assay: Cytotoxicity against African green monkey Vero cells assessed as reduction in cell viability at 383.2 uM after 18 hrs by XTT assay relative to control; type: cell-based; conditions: chlorocebus sabaeus
[27] = Toxicity in Galleria mellonella larvae assessed as survival rate at 47.9 uM measured after 18 hrs (reference value: 100%)
[28] = Toxicity in Galleria mellonella larvae assessed as survival rate at 47.9 uM measured after 48 hrs (reference value: 100%)
[29] = Toxicity in Galleria mellonella larvae assessed as survival rate at 47.9 uM measured after 120 hrs (reference value: 100%)
[30] = Toxicity in Galleria mellonella larvae assessed as movement melanization at 47.9 uM measured after 18 hrs (reference value: 0%)
[31] = Toxicity in Galleria mellonella larvae assessed as movement melanization at 47.9 uM measured after 48 hrs (reference value: 0%)
[32] = Toxicity in Galleria mellonella larvae assessed as movement melanization at 47.9 uM measured after 128 hrs (reference value: 0%)
[33] = Toxicity in Galleria mellonella larvae assessed as cocoon formation at 47.9 uM measured after 18 hrs (reference value: 60 +/- 20%)
[34] = Toxicity in Galleria mellonella larvae assessed as cocoon formation at 47.9 uM measured after 48 hrs (reference value: 85 +/- 5%)
[35] = Toxicity in Galleria mellonella larvae assessed as cocoon formation at 47.9 uM measured after 48 hrs (reference value: 100 +/- 0%)
Candida albicans [36] = assay: Antifungal activity against Candida albicans ATCC 90028 assessed as reduction in cell growth after 48 to 72 hrs by M27-A3 protocol based method; type: functional
Candida albicans [37] = assay: Antifungal activity against Candida albicans ATCC 90028 assessed as reduction in cell growth after 48 to 72 hrs in presence of ergosterol by M27-A3 protocol based method; type: functional
Candida albicans [38] = assay: Inhibition of Candida albicans ATCC 90028 cell adhesion to human TR146 cells at reduction in cell adherence at 47.9 uM relative to control; type: functional; conditions: ATCC 90028, TR146
Candida albicans [39] = assay: Induction of reactive oxygen species generation in Candida albicans ATCC 90028 assessed as ROS level at 47.9 uM after 18 hrs by DCFDA probe based flow cytometry (reference value: 0.3%); type: functional
Candida albicans [40] = assay: Induction of Candida albicans ATCC 90028 internalization in mouse RAW264.7 cells assessed as reduction in fungus-induced cell damage by measuring live and early apoptotic cells at 47.9 uM after 2 hrs acridine orange/ethidium bromide staining based confocal scanning microscopic analysis; type: functional, organism-based

`Clc1ccc(-c2nnn(CCCN3CCCC3c3ccc(Cl)cc3)n2)cc1` (stereo not drawn) gave an inhibition of growth at 0.08 µM (Candida albicans [1]) of 99.6%, an inhibition of growth at 0.16 µM (Candida albicans [2]) of 99.5% and an inhibition of growth at 0.31 µM (Candida albicans [3]) of 99.2%. The inhibition of growth at 0.62 µM (Candida albicans [4]) was 99.5%, the inhibition of growth at 1.24 µM (Candida albicans [5]) was 99% and the inhibition of growth at 2.49 µM (Candida albicans [6]) was 99.7%. The inhibition of growth at 4.97 µM (Candida albicans [7]) was 99.3%, the inhibition of growth at 9.94 µM (Candida albicans [8]) was 99.3% and the inhibition of growth at 19.88 µM (Candida albicans [9]) was 99.3%. For the same compound, the inhibition of growth at 39.77 µM (Candida albicans [10]) was 99.6%, the “log(activity)” value (Candida albicans [11]) was -1.4 and the Activity (Vero [12]) was 100%. For the same compound, the selectivity ratio [13] was 2, the IC50 (Candida albicans [14]) was 79.5 µM and the Activity (Candida albicans [15]) was “Active”.
With `c1ccc(-c2nnn(CCCN3CCCC3c3ccccc3)n2)cc1` (stereo not drawn) the inhibition of growth at 0.09 µM (Candida albicans [16]) was 99.2%, the inhibition of growth at 0.2 µM (Candida albicans [17]) was 99.3% and the inhibition of growth at 0.4 µM (Candida albicans [18]) was 99.3%. It also gave an inhibition of growth at 0.7 µM (Candida albicans [19]) of 99.2%, an inhibition of growth at 1.5 µM (Candida albicans [20]) of 99.3% and an inhibition of growth at 3 µM (Candida albicans [21]) of 99.3%. For the same compound, the inhibition of growth at 6 µM (Candida albicans [22]) was 99.3%, the inhibition of growth at 12 µM (Candida albicans [23]) was 99.4% and the inhibition of growth at 23.9 µM (Candida albicans [24]) was 99.3%. For the same compound, the inhibition of growth at 47.9 µM (Candida albicans [25]) was 99.2%, the “log(activity)” value (Candida albicans [11]) was -0.4 and the Activity (Vero [26]) was 100%. It also gave a selectivity ratio [13] of 2, a survival at 18 h, 47.9 µM [27] of 100% and a survival at 48 h, 47.9 µM [28] of 100%. For the same compound, the survival at 120 h, 47.9 µM [29] was 97%, the Activity [30] was 0% and the Activity [31] was 0%. It also gave an Activity [32] of 0%, an Activity [33] of 67% and an Activity [34] of 77%. The Activity [35] was 93%, the IC50 (Candida albicans [14]) was 23.9 µM and the MIC (Candida albicans [36]) was 11.9 µM (≈ 3.97 µg/mL). For the same compound, the MIC (Candida albicans [37]) was 23.9 µM, the inhibition at 47.9 µM (Candida albicans [38]) was > 95% and the Activity (Candida albicans [39]) was 12 - 16%. The Activity (Candida albicans [40]) was “Active”.
